Values of other authors as cited in patent US7267830B2, “Composition and methods for inhibiting the progression macular degeneration and promoting healthy vision” (Alcon, Inc., priority 2003, dated 2007).
Where two headings read alike, the source gives them in different places.

Legend:
[1] = test system: macular degeneration changes; details: zinc supplement, Newsome 1988

What does the source list for `[Zn]` [Zinc]?
retarding macular degeneration changes versus placebo [1]: significantly better than placebo; tolerability (100 mg zinc a day (Wagner 1985)): well tolerated without difficulty; tolerability (150 mg of zinc a day (Wagner 1985)): well tolerated without difficulty; tolerability (about 200 mg of zinc per day): well-tolerated; potential side effects (about 200 mg of zinc per day (Fischer 1983)): blocking copper absorption
